# Source: patent publication US12419890B2, “Administration of sumo-activating enzyme inhibitor and checkpoint inhibitors” (Takeda Pharmaceutical Company Limited, priority 2019, dated 2025)
# How the values were obtained:
# [1] = test system: MC38 syngeneic mouse colon adenocarcinoma-derived subcutaneous tumor; assay: MC38 Study 8: mouse MC38 syngeneic tumor model, individual tumor volume; format: in vivo; conditions: BIWx3 till Day 17
# Description: MC38 Study 8: MC38 is a mouse colon adenocarcinoma cell line. MC38 mouse syngeneic tumor model was generated by subcutaneous inoculation with 1.0×10^6 MC38 cells (cell suspension) in 11 weeks old female C57BL/6 mice (SINO-British SIPPR/BK Lab Animal Ltd., Shanghai, China) in the flank. When the mean tumor volume reached approximately 60 mm^3, the animals were randomized into one vehicle control and five treatment groups (n=8/group). Mice were then dosed with 20% HPbCD or Compound I-263a or anti-mouse PD-1 antibody over a 21-day period. Tumor growth and body weight were measured twice per week during the treatment and post-treatment periods, and mice were humanely euthanized once they had reached their humane endpoint.
# Study 8: A 0.75 mg/mL stock solution of Compound I-263a was formulated weekly in 20% HPβCD and administered intravenously (IV) based on exact animal body weight on each day of treatment, using a dosing volume of 10 mL/kg body weight. Final doses received were 7.5 mg/kg. Dosing volume for Compound I-263a was 0.2 mL. […]
# Tumors were measured twice weekly using vernier calipers. Tumor volumes were calculated using standard equation: V=W^2×L/2, where V=volume, W=width, and L=length for the tumor. […] Tumor size and body weight were measured twice a week for the duration of the study. […]
# [2] = test system: SUMO-activating enzyme and SUMOylation; assay: inhibition of SUMO-activating enzyme and SUMOylation in cultured tumor cell lines; format: cell-based; conditions: cultured mouse and human tumor cell lines
# Source text: SAE inhibitors, as disclosed herein, are described, for example, in US 2016/0009744 and U.S. Pat. No. 9,695,154. They may be prepared by methods known to one skilled in the art and/or according to the methods described in US 2016/0009744 and U.S. Pat. No. 9,695,154, which is hereby incorporated by reference in its entirety. Central to the mechanism of action of useful SAE inhibitors, such as Compound I-263a, in combinations and methods of the present disclosure is production of type 1 IFNs and induction of an innate immune response with activation of dendritic cells, natural killer (NK) cells and macrophages.
structure (smiles),measurement,setting,value
"Cc1sc(C(=O)c2cncnc2N[C@@H]2C[C@H](COS(N)(=O)=O)[C@@H](O)C2)cc1[C@@H]1NCCc2ccc(Cl)cc21 [Compound I-263a, [(1R,2S,4R)-4-{[5-({4-[(1R)-7-chloro-1,2,3,4-tetrahydroisoquinolin-1-yl]-5-methyl-2-thienyl}carbonyl)pyrimidin-4-yl]amino}-2-hydroxycyclopentyl]methyl sulfamate]",tumors with tumor growth delay,"[1]; delay day 11-14, Compound I-263a 7.5 mg/kg IV or anti-mPD-1 10 mg/kg IP",1
same,tumors with tumor growth delay,"[1]; delay from day 7-18, 8 implanted tumors, Compound I-263a 7.5 mg/kg IV alone or plus anti-mPD-1 10 mg/kg IP",2
same,inhibition of SUMO-activating enzyme and SUMOylation,[2],Selective and potent inhibition
